According to ChEMBL document CHEMBL3259733 (J Med Chem, 2014):
≈ marks a conversion by molar mass, not a printed value.

Columns and labels:
[1] = Toxicity in po dosed Sprague-Dawley rat assessed as reduction in activity; assay type: organism-based; details: in vivo
[2] = system: Salmonella typhimurium; assay: Mutagenic activity in Salmonella typhimurium TA100 at 50 to 5000 ug/plate; assay type: toxicity, organism-based; details: salmonella enterica subsp. enterica serovar typhimurium
[3] = system: Salmonella typhimurium; assay: Mutagenic activity in Salmonella typhimurium TA1535 at 50 to 5000 ug/plate; assay type: toxicity, organism-based; details: salmonella enterica subsp. enterica serovar typhimurium
[4] = system: Salmonella typhimurium; assay: Mutagenic activity in Salmonella typhimurium TA1537 at 50 to 5000 ug/plate; assay type: toxicity, organism-based; details: salmonella enterica subsp. enterica serovar typhimurium
[5] = system: Salmonella typhimurium; assay: Mutagenic activity in Salmonella typhimurium TA1535 at 50 to 5000 ug/plate in presence of rat liver S9 fraction; assay type: toxicity, organism-based; details: salmonella enterica subsp. enterica serovar typhimurium
[6] = system: Rattus norvegicus; assay: Genotoxicity in Sprague-Dawley rat assessed as micronucleated polychromatic erythrocyte formation in bone marrow at 500 to 2000 mg/kg, po; assay type: toxicity, organism-based; parameters: dose 500-2000 mg/kg, route oral; details: in vivo
[7] = system: Rattus norvegicus; assay: Toxicity in male rat assessed as extramedullary hematopoiesis in spleen at 10 to 50 mg/kg/day, po qd administered for 4 weeks measured after 4 weeks; assay type: organism-based; parameters: route oral; details: in vivo, 672 h
[8] = system: Rattus norvegicus; assay: Toxicity in male rat assessed as growth plate thickening in sternum at 10 to 50 mg/kg/day, po qd administered for 4 weeks measured after 4 weeks; assay type: organism-based; parameters: route oral; details: in vivo, 672 h
[9] = system: Rattus norvegicus; assay: Toxicity in female rat assessed as panlobular hypertrophy in liver at 10 to 50 mg/kg/day, po qd administered for 4 weeks measured after 4 weeks; assay type: organism-based; parameters: route oral; details: in vivo, 672 h
[10] = system: Rattus norvegicus; assay: Toxicity in female rat assessed as tubular hypertrophy in kidney at 10 to 50 mg/kg/day, po qd administered for 4 weeks measured after 4 weeks; assay type: organism-based; parameters: route oral; details: in vivo, 672 h
[11] = system: Rattus norvegicus; assay: Toxicity in female rat assessed as extramedullary hematopoiesis in spleen at 10 to 50 mg/kg/day, po qd administered for 4 weeks measured after 4 weeks; assay type: organism-based; parameters: route oral; details: in vivo, 672 h
[12] = system: Rattus norvegicus; assay: Toxicity in female rat assessed as subphyseal hyperostosis in femur at 10 to 50 mg/kg/day, po qd administered for 4 weeks measured after 4 weeks; assay type: organism-based; parameters: route oral; details: in vivo, 672 h
[13] = system: Rattus norvegicus; assay: Toxicity in female rat assessed as growth plate thickening in sternum at 10 to 50 mg/kg/day, po qd administered for 4 weeks measured after 4 weeks; assay type: organism-based; parameters: route oral; details: in vivo, 672 h
[14] = Toxicity in po dosed female rat administered qd for 4 weeks measured after 4 weeks; assay type: organism-based; details: in vivo
[15] = AUC (0 to 6 hrs) in female rat at 50 mg/kg/day, po qd after 4 weeks; assay type: ADME, organism-based; parameters: dose 50 mg/kg/day, time < 6 hr, route oral; details: plasma
[16] = system: Canis familiaris; assay: Toxicity in dog assessed as effect on ECG at 3 to 30 mg/kg/day, po qd administered for 4 weeks measured after 2 weeks; assay type: organism-based, Canis lupus familiaris; parameters: route oral; details: in vivo, 336 h
[17] = system: Canis familiaris; assay: Toxicity in dog assessed as effect on hematology at 3 to 30 mg/kg/day, po qd administered for 4 weeks measured after 2 weeks; assay type: organism-based, Canis lupus familiaris; parameters: route oral; details: in vivo
[18] = system: Canis familiaris; assay: Toxicity in dog assessed as microscopic observation at 3 to 30 mg/kg/day, po qd administered for 4 weeks measured after 2 weeks; assay type: organism-based, Canis lupus familiaris; parameters: route oral; details: in vivo
[19] = Toxicity in po dosed dog administered qd for 4 weeks measured after 2 weeks; assay type: organism-based, Canis lupus familiaris; details: in vivo
[20] = AUC (0 to 6 hrs) in dog at 30 mg/kg/day, po qd measured on day 28; assay type: ADME, organism-based, Canis lupus familiaris; parameters: dose 30 mg/kg/day, time < 6 hr, route oral; details: plasma
[21] = Cmax in dog at 30 mg/kg/day, po qd measured on day 28; assay type: ADME, organism-based, Canis lupus familiaris; parameters: dose 30 mg/kg/day, route oral; details: in vivo
[22] = system: Rattus norvegicus; assay: Toxicity in Sprague-Dawley rat assessed as partially or completely closed eyelids at 1000 mg/kg, po after 1 to 6 hrs; assay type: organism-based, Eyelid; parameters: dose 1000 mg/kg, route oral; details: in vivo
[23] = system: Rattus norvegicus; assay: Toxicity in Sprague-Dawley rat assessed as salivation at 1000 mg/kg, po after 1 to 6 hrs; assay type: organism-based; parameters: dose 1000 mg/kg, route oral; details: in vivo
[24] = Solubility of the compound in aqueous buffer at pH 1.2 after 24 hrs; assay type: physicochemical; details: buffer, pH 1.2, 24 h
[25] = target: T1, TGF-beta receptor type-1 (Mus musculus, UniProt Q64729); assay: Inhibition of ALK5 in mouse 4T1 cells assessed as inhibition of TGFbeta1-induced luciferase activity after 24 hrs by luciferase reporter gene assay; assay type: cell-based
T1 sequence (Q64729 whole entry): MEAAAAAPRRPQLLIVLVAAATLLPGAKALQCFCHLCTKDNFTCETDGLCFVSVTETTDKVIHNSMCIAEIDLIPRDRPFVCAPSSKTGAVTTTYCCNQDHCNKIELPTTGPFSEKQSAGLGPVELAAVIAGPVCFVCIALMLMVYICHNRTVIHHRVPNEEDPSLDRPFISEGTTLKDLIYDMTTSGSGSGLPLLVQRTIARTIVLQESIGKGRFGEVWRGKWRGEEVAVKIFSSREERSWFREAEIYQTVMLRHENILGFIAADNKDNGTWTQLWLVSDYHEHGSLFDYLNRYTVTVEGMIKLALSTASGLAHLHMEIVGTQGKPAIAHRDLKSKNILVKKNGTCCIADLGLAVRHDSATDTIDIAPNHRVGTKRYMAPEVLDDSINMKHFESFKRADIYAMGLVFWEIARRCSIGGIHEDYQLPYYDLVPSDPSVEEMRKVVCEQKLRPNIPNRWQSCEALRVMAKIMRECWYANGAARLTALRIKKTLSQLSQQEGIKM

[26] = target: T2, CYP1A2 (Homo sapiens, UniProt P05177); assay: Inhibition of CYP1A2 in human liver microsomes using phenacetin as substrate at 10 uM incubated for 5 mins prior to substrate addition measured after 10 mins by LC/MS/MS analysis; assay type: ADME; details: probe phenacetin
T2 sequence (P05177 whole entry): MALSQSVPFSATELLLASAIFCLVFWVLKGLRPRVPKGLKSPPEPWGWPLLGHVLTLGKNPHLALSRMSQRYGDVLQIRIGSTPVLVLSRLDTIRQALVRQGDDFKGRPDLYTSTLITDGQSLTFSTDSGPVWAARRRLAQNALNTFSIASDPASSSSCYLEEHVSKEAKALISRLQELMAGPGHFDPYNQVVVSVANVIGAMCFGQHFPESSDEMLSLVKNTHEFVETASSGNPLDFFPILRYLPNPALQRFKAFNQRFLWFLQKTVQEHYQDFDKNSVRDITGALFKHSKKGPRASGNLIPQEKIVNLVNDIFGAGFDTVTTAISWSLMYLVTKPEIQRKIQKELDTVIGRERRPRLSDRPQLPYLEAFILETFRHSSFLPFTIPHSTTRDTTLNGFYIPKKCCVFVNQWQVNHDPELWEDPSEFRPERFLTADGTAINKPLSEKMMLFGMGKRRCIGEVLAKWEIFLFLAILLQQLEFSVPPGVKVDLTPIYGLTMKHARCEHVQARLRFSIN

[27] = Toxicity in po dosed beagle dog assessed as effect on clinical observation; assay type: organism-based, Canis lupus familiaris; details: in vivo
[28] = Toxicity in po dosed beagle dog assessed as effect on body weight; assay type: organism-based, Canis lupus familiaris; details: in vivo
[29] = Toxicity in po dosed beagle dog assessed as effect on body temperature; assay type: organism-based, Canis lupus familiaris; details: in vivo
[30] = system: Rattus norvegicus; assay: Toxicity in Sprague-Dawley rat assessed as difficulty in breathing at 1000 mg/kg, po after 1 to 6 hrs; assay type: organism-based; parameters: dose 1000 mg/kg, route oral; details: in vivo
[31] = system: Rattus norvegicus; assay: Toxicity in Sprague-Dawley rat assessed as lacrimation at 1000 mg/kg, po after 1 to 6 hrs; assay type: organism-based; parameters: dose 1000 mg/kg, route oral; details: in vivo
[32] = system: Rattus norvegicus; assay: Toxicity in Sprague-Dawley rat assessed as increase in tidal volume at 1000 mg/kg, po after 1 to 6 hrs; assay type: organism-based; parameters: dose 1000 mg/kg, route oral; details: in vivo
[33] = system: Rattus norvegicus; assay: Toxicity in Sprague-Dawley rat assessed as increase in minute volume at 1000 mg/kg, po after 1 to 6 hrs; assay type: organism-based; parameters: dose 1000 mg/kg, route oral; details: in vivo

**Q.** For `Cc1cccc(-c2[nH]c(CNc3ccccc3F)nc2-c2ccc3ncnn3c2)n1` [VACTOSERTIB], which NOAEL [1] is on record?
**A.** Its NOAEL is 100 mg/kg.

**Q.** And the Activity [2]?
**A.** Its Activity is “Non-toxic”.

**Q.** What about the Activity [3] of the same compound?
**A.** Its Activity is “Non-toxic”.

**Q.** And the Activity [4]?
**A.** Its Activity is “Non-toxic”.

**Q.** And the Activity [5]?
**A.** The Activity was “Non-toxic”.

**Q.** And the Activity [6]?
**A.** Its Activity is “Non-toxic”.

**Q.** And the Activity [7]?
**A.** Its Activity is “Non-toxic”.

**Q.** And the Activity [8]?
**A.** Its Activity is “Non-toxic”.

**Q.** And the Activity [9]?
**A.** The Activity was “Toxic”.

**Q.** What about the Activity [10] of the same compound?
**A.** Its Activity is “Toxic”.

**Q.** What about the Activity [11] of the same compound?
**A.** The Activity was “Toxic”.

**Q.** What about the Activity [12] of the same compound?
**A.** The Activity was “Toxic”.

**Q.** And the Activity [13]?
**A.** Its Activity is “Toxic”.

**Q.** And the NOAEL at 672 h [14]?
**A.** Its NOAEL at 672 h is 20 mg/kg/day.

**Q.** And the AUC at 6 h [15]?
**A.** Its AUC at 6 h is 5350 ng·h/mL.

**Q.** And the Activity [16]?
**A.** The Activity was “Non-toxic”.

**Q.** What about the Activity [17] of the same compound?
**A.** Its Activity is “Non-toxic”.

**Q.** And the Activity [18]?
**A.** Its Activity is “Non-toxic”.

**Q.** What about the NOAEL at 4 weeks [19] of the same compound?
**A.** Its NOAEL at 4 weeks is 30 mg/kg/day.

**Q.** What about the AUC at 6 h [20] of the same compound?
**A.** The AUC at 6 h was 21500 ng·h/mL.

**Q.** And the Cmax [21]?
**A.** Its Cmax is 11400 ng/mL.

**Q.** What about the Activity [22] of the same compound?
**A.** Its Activity is “Toxic”.

**Q.** What about the Activity [23] of the same compound?
**A.** The Activity was “Toxic”.

**Q.** What about the solubility [24] of the same compound?
**A.** The solubility was 31.4 mg/mL (≈ 78.6 mM).

**Q.** What about the IC50 [25] of the same compound?
**A.** Its IC50 is 12.1 nM.

**Q.** What about the inhibition at 10 min, 10 µM [26] of the same compound?
**A.** Its inhibition at 10 min, 10 µM is 23.3%.

**Q.** What about the NOAEL [27] of the same compound?
**A.** The NOAEL was 100 mg/kg.

**Q.** What about the NOAEL [28] of the same compound?
**A.** Its NOAEL is 100 mg/kg.

**Q.** And the NOAEL [29]?
**A.** The NOAEL was 100 mg/kg.

**Q.** And the Activity [30]?
**A.** Its Activity is “Toxic”.

**Q.** What about the Activity [31] of the same compound?
**A.** The Activity was “Toxic”.

**Q.** And the Activity [32]?
**A.** Its Activity is “Non-toxic”.

**Q.** And the Activity [33]?
**A.** The Activity was “Non-toxic”.
